Columns and labels:
Type in all cases: cell-based
Candida parapsilosis = assay: Antifungal activity in vitro, resazurin growth inhibition: Candida parapsilosis (B66126)
Outline: (§1)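 Broth microdilution: RPMI-1640/L-Gln/2% glucose, MOPS pH 7.0±0.1; 10^3 cfu/well; top concentration 64 μM, 2- or 4-fold steps. Dermatophytes at 27° C., one week or more. Resazurin 0.005% (w/v) added, fluorescence 550/590 nm.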

Rhizomucor miehei = assay: Antifungal activity in vitro, resazurin growth inhibition: Rhizomucor miehei (IHEM13391)
Protocol: (§2) The standard susceptibility screen is performed in 96-well plates (U-bottom, Greiner Bio-One). Serial dilutions (2-fold or 4-fold) of 20 mM compound stock solutions are made in 100% DMSO, followed by an intermediate dilution step in water. These serial dilutions (10 μl) are then spotted onto test-plates that can be stored in the dark at 4° C. for a maximum period of 2 weeks. An adequate broad dose-range is included with 64 μM as the highest in-test concentration. The culture medium RPMI-1640 is supplemented with L-glutamine, 2% glucose and buffered with 3-(N-morpholino)-propanesulfonic acid (MOPS) at pH 7.0±0.1.
(§3) The different fungal species/isolates (Table 3a) are cryopreserved and 1/1000 diluted in medium just prior to use. A standard inoculum of 200 μl containing 10^3 colony-forming unit (cfu) is then added to each well. A positive control (100% growth=fungal culture without antifungal) and a negative control (0% growth ═RPMI-MOPS medium) are included on each plate. Optimal incubation time and temperature are dependent on the fungal species and vary from 24 h for yeasts (37° C.) to one week or more for dermatophytes (27° C.). Inhibition of fungal growth is measured after adding 10 μl of 0.005% (w/v) resazurin (Sigma Aldrich) to each well, based on the principle that living cells convert the non-fluorescent blue resazurin into the pink and fluorescent resorufin, allowing fluorimetric reading (λex 550 nm and λem 590 nm) after an additional incubation period (‘resa’ time mentioned in Table 3a).

Cryptococcus neoformans = assay: Antifungal activity in vitro, resazurin growth inhibition: Cryptococcus neoformans (B66663)
Outline: as §1

Scedosporium prolificans = assay: Antifungal activity in vitro, resazurin growth inhibition: Scedosporium prolificans (IHEM21157)
Protocol: as §2, §3

Sporothrix schenkii = assay: Antifungal activity in vitro, resazurin growth inhibition: Sporothrix schenkii (B62482)
Outline: as §1

[1] = test system: Trichophyton mentagrophytes; assay: Antifungal activity in vitro, resazurin growth inhibition: Trichophyton mentagrophytes (B70554)
Outline: as §1

Trichophyton rubrum = assay: Antifungal activity in vitro, resazurin growth inhibition: Trichophyton rubrum (B68183)
Outline: as §1

Scedosporium apiospermum = assay: Antifungal activity in vitro, resazurin growth inhibition: Scedosporium apiospermum (IHEM3817)
Protocol: as §2, §3

Aspergillus fumigatus = assay: Antifungal activity in vitro, resazurin growth inhibition: Aspergillus fumigatus (B42928)
Outline: as §1

Rhizopus oryzae = assay: Antifungal activity in vitro, resazurin growth inhibition: Rhizopus oryzae (IHEM5223)
Protocol: as §2, §3

Microsporum canis = assay: Antifungal activity in vitro, resazurin growth inhibition: Microsporum canis (B68128)
Outline: as §1

| Compound | Inf. D: Candida parapsilosis B66126, pIC50 (Candida parapsilosis) | Inf. K: Rhizomucor miehei IHEM13391, pIC50 (Rhizomucor miehei) | Inf. F: Cryptococcus neoformans B66663, pIC50 (Cryptococcus neoformans) | Inf. I: Scedosporium prolificans IHEM21157, pIC50 (Scedosporium prolificans) | Inf. A: Sporothrix schenkii B62482, pIC50 (Sporothrix schenkii) | Inf. G: Trichophyton mentagrophytes B70554, pIC50 [1] | Inf. C: Trichophyton rubrum B68183, pIC50 (Trichophyton rubrum) | Inf. H: Scedosporium apiospermum IHEM3817, pIC50 (Scedosporium apiospermum) | Inf. E: Aspergillus fumigatus B42928, pIC50 (Aspergillus fumigatus) | Inf. J: Rhizopus oryzae IHEM5223, pIC50 (Rhizopus oryzae) | Inf. B: Microsporum canis B68128, pIC50 (Microsporum canis) |
| --- | --- | --- | --- | --- | --- | --- | --- | --- | --- | --- | --- |
| Clc1ccc(C2=NCc3c(Cl)cccc3-n3cccc32)cn1 [Compound 77] | 4.69 | <4.19 | 5.03 | 5.57 | 4.52 | 5.71 | 6.22 | 4.88 | 6.05 | <4.19 | 5.67 |
| Clc1cc(C2=NCc3c(Cl)cccc3-n3cccc32)cnc1Cl [Compound 79] | 4.69 | <4.19 | <4.19 | 6.28 | <4.19 | 5.76 | 6.33 | 6.12 | 6.63 | <4.19 | 5.72 |
| CC(F)(F)c1ccc(C2=NCc3c(Cl)cccc3-n3cccc32)cn1 [Compound 82] | 5.285 | <4.19 | <4.19 | 6.24 | <4.19 | 6.24 | 6.85 | 6.01 | 6.28 | <4.19 | 6.37 |
| CC(F)(F)c1ccc(C2=NCc3c(F)cccc3-n3cccc32)cn1 [Compound 83] | <4.19 | <4.19 | <4.19 | 6.09 | <4.19 | 5.88 | 6.68 | <4.19 | 5.33 | <4.19 | 4.97 |
| CC(F)(F)c1ccc(C2=NCc3c(Cl)cc(Cl)cc3-n3cccc32)cn1 [Compound 84] | 5.44 | <4.19 | 5.88 | <4.19 | 5.65 | 5.88 | 6.26 | 5.31 | 6.24 | <4.19 | 6.24 |
| CC(F)(F)c1ccc(C2=NCc3c(Cl)cc(F)cc3-n3cccc32)cn1 [Compound 85] | 5.61 | <4.19 | 5.86 | 4.81 | 4.63 | 6.60 | 6.81 | 5.44 | 6.28 | <4.19 | 6.73 |
| CC(F)(F)c1ccc(C2=NCc3c(F)cc(F)cc3-n3cccc32)cn1 [Compound 86] | 5.56 | <4.19 | 4.99 | 5.77 | 4.94 | 5.59 | 6.30 | 4.43 | 5.68 | <4.19 | 5.67 |
| FC(F)(F)c1ccc(C2=NCc3ccccc3-n3cccc32)cn1 [Compound 87] | <4.19 | <4.19 | <4.19 | 5.71 | <4.19 | 5.18 | 6.54 | <4.19 | 4.94 | <4.19 | 5.97 |
| Cc1cccc2c1CN=C(c1ccc(C(F)(F)F)nc1)c1cccn1-2 [Compound 88] | <4.19 | <4.19 | <4.19 | 6.14 | 4.85 | 5.80 | 7.10 | 5.28 | <4.19 | <4.19 | 6.63 |
| FC(F)(F)c1ccc(C2=NCc3c(Cl)cccc3-n3cccc32)cn1 [Compound 89] | 6.17 | <4.19 | <4.19 | 6.28 | <4.19 | 6.23 | 6.75 | <4.19 | 5.70 | <4.19 | 6.14 |
| FC(F)(F)c1ccc(C2=NCc3c(Cl)cc(Cl)cc3-n3cccc32)cn1 [Compound 91] | <4.19 | <4.19 | <4.19 | 5.28 | 5.10 | 5.72 | 6.27 | <4.19 | 5.75 | <4.19 | 5.69 |
| CC(=O)c1ccc(C2=NCc3c(Cl)cccc3-n3cccc32)cn1 [Compound 92] | <4.19 | <4.19 | <4.19 | <4.19 | <4.19 | <4.19 | 6.09 | <4.19 | <4.19 | <4.19 | <4.19 |
| CC(=O)c1ccc(C2=NCc3c(F)cc(F)cc3-n3cccc32)cn1 [Compound 94] | 4.59 | <4.19 | 4.58 | <4.19 | <4.19 | 5.92 | 6.19 | <4.19 | 5.13 | <4.19 | 5.71 |
| FC(F)(F)c1ncc(C2=NCc3c(Cl)cccc3-n3cccc32)cn1 [Compound 102] | <4.19 | <4.19 | <4.19 | 5.18 | 4.59 | 6.01 | 6.84 | <4.19 | 5.05 | <4.19 | 6.34 |

— patent publication US9493468B2, “Antifungal 5,6-dihydro-4H-pyrrolo[1,2-a][1,4]benzo-diazepines and 6H-pyrrolo[1,2-a][1,4]benzodiazepines substituted with heterocyclic derivatives” (Janssen Pharmaceutica NV, priority 2011, dated 2016)
